The text below walks through data of PMC13310753, “Discovery of actinomycin derivatives with improved selectivity against malaria parasites from a Streptomyces culture library” (The Journal of Antibiotics, 2026).

The subject of one series is P. falciparum strain 3D7. The series can be described thus: microbe, parasite or virus in culture. In kind it is cell-based, Plasmodium falciparum. The following applies: for SI, selectivity index (CC50/IC50): CC50 in AMB cells / IC50 against 3D7; for IC50: Plasmodium falciparum, 3D7, 48 h, read-out: IC50 (50% inhibitory concentration), in vitro antimalarial activity; for antimalarial activity of purified components (in words): bioassay during purification using P. falciparum strains 3D7 and Dd2. The method, then:
(§1) Malarial parasite cultures and AMB cells were previously described. The detailed experimental procedure is described in the Supplementary data. Antimalarial activity and cytotoxicity were evaluated at 50% inhibitory concentration (IC50) and 50% cytotoxic concentration (CC50), respectively. We here analyzed these activities on purified actinomycin X2 (1), actinomycin X0ß (2), and commercially available actinomycin D (3). The SI is calculated as CC50/IC50.
(§2) Blood stages of P. falciparum 3D7 cell lines were provided by Nagasaki University with support in part by NEKKEN Bio-Resource Center (NEKKEN BRC), Institute of Tropical Medicine, Nagasaki University as a part of National BioResource Project (NBRP), MEXT, Japan. Human erythrocytes used for parasite culture were obtained from the Japan Red Cross Society (Registration No. 28J0060). The 3D7 parasites were cultivated in O+ erythrocytes in 2% hematocrit in Roswell Park Memorial Institute (RPMI) 1640-based complete medium (CM) supplemented with 5% AB+ human serum (prepared from plasma), 0.25% AlbuMax I (Gibco, Waltham, MA), 12.5 µg/mL gentamycin, and […] hypoxanthine […]
(§3) Primary adult mouse brain (AMB) cells were isolated and established at the NEKKEN Bio-Resource Center, according to previously established methods (Ref. 2). Briefly, the primary cells, which were passaged several times to be adapted to in vitro conditions, were maintained in Minimum Essential Medium (MEM) (Wako Pure Chemicals Industrial Ltd, Osaka, Japan) supplemented with 10% fetal bovine serum (FBS), penicillin/streptomycin solution (100 units/mL penicillin G and […] streptomycin sulfate) (Wako Pure Chemicals Industrial Ltd) and incubated at 37°C and 5% CO2. For the cytotoxicity assay, primary cells that had completed three passages were used.
Antimalarial growth inhibition assays
The antimalarial growth inhibition assay to determine 50% inhibition concentration (IC50) of compounds was performed as described before, with a minor modification (Ref. 3).
Briefly, The P. falciparum cultures (0.75% parasitemia and 2% hematocrit) were seeded on a 96-well black plate with the clear bottom (Thermo Fisher Scientific, Rochester, NY) and […]
exposed to compounds serially diluted threefold over a concentration range of 2.5 µg/mL to 0.13 ng/mL at the final concentration. As a result of the dose-response assay, IC50 value, the concentration of drug required to reduce parasites by 50% (10(log(A/B) × (50 ‒ C)/(D ‒ C) + log(B)) was obtained, where A represents the lowest concentration at which the percentage inhibition was greater than 50%, B is the highest concentration value at which the percentage inhibition was less than 50%, C is the percentage inhibition value of the sample at concentration B, and D is the percentage inhibition value of the sample at concentration A.
The culture plates were kept at 37°C under mixed gas (5% O2, 5% CO2, and 90% N2) for 48 hrs. Each in vitro experiment was performed in duplicate wells and repeated twice. The parasite growth inhibition was obtained by dividing the test samples' parasitemia by the negative controls' average.
SYBR Green – I (Lonza, Rockland, ME) assay technique was used to detect the parasite DNA. The RBCs were lysed after 48 hrs of incubation by adding 100 µL of lysis buffer (20 mM Tris, 10 mM EDTA, 0.01% saponin (wt/vol), and 0.1% Triton X-100 (vol/vol), pH 7.5) and 1× final concentration of SYBR Green - I into each well. The plates were incubated at room temperature for 1 hr with gentle agitation. The relative fluorescence units (RFU) per well were then determined at 485–515 nm (filter) for 0.1 sec per exposure using a multilabel plate reader (ARVO 1430; Perkin Elmer, Waltham, MA, USA).
Cytotoxicity assay was performed to determine 50% cytotoxic concentration (CC50) as previously described with minor modification (Ref. 4). Briefly, AMB cells (1×10^4 cells) were seeded in a 96-well plate (black plate with a clear bottom) and incubated at 37°C in a CO2

The nature of series [1]: Cytotoxicity assay (Alamar Blue), primary adult mouse brain cells. In kind it is cell-based. The following applies: AMB cells, two independent experiments in duplicate wells, read-out: CC50 (50% cytotoxic concentration). As to the method: as §1, §2
as §3, with “used. […]” for “used.”
SYBR Green – I (Lonza, Rockland, ME) assay technique was used to detect the parasite DNA. […] The relative fluorescence units (RFU) per well were then determined at 485–515 nm (filter) for 0.1 sec per exposure using a multilabel plate reader (ARVO 1430; Perkin Elmer, Waltham, MA, USA). […]

Read-outs that look alike come from different tables or passages of the source. Numbered stars: 1 amine (or outer) side, 2 acyl side, 3 side chain; on linkers, the order of the positions; unused ones are H or OH. Bridge positions count the residues as written; N and C are the ends. Square brackets hold non-standard residues; d marks the D form. Peptide text beside a SMILES is read from it. I, II: the chains in the order shown. Actinocin(1to9) = Cc1c2oc3c(C)ccc(C(=O)[*:2])c3nc-2c(C(=O)[*:1])c(N)c1=O; Actinocin(9to1) = Cc1c2oc3c(C)ccc(C(=O)[*:1])c3nc-2c(C(=O)[*:2])c(N)c1=O; Pro(4-oxo) = O=C1CN[C@H](C(=O)O)C1; Hyp = O=C(O)[CH]1C[CH](O)CN1; NMeV = CN[CH](C(=O)O)C(C)C; Sar = CNCC(=O)O

In the case of `Cc1c2oc3c(C)ccc(C(=O)N[C@@H]4C(=O)N[C@H](C(C)C)C(=O)N5CCC[C@H]5C(=O)N(C)CC(=O)N(C)[C@@H](C(C)C)C(=O)O[C@@H]4C)c3nc-2c(C(=O)N[C@@H]2C(=O)N[C@H](C(C)C)C(=O)N3CCC[C@H]3C(=O)N(C)CC(=O)N(C)[C@@H](C(C)C)C(=O)O[C@@H]2C)c(N)c1=O` [actinomycin D] (I: T[dV]P[Sar][NMeV] / II: T[dV]P[Sar][NMeV]; ester I:1-I:C, II:1-II:C; linker I:N-II:N via Actinocin(9to1)), in the series on P. falciparum strain 3D7, the “SI, selectivity index (CC50/IC50)” value amounted to 14.3 and the IC50 is 0.469 nM. Further, the CC50 at 48 h in series [1] is 6.71 nM.

`Cc1c2oc3c(C)ccc(C(=O)NC4C(=O)NC(C(C)C)C(=O)N5CCCC5C(=O)N(C)CC(=O)N(C)C(C(C)C)C(=O)OC4C)c3nc-2c(C(=O)NC2C(=O)NC(C(C)C)C(=O)N3CC(O)CC3C(=O)N(C)CC(=O)N(C)C(C(C)C)C(=O)OC2C)c(N)c1=O` (centres unmarked) [actinomycin X0ß] (I: TV[Hyp][Sar][NMeV] / II: TVP[Sar][NMeV]; ester I:1-I:C, II:1-II:C; linker I:N-II:N via Actinocin(1to9); configuration not given here): in the series on P. falciparum strain 3D7, the “SI value relative to that of actinomycin D” value (from here on “SI value relative to that”) is “seven”; the “SI, selectivity index (CC50/IC50)” value is recorded as 106; the “antimalarial activity of purified components (in words)” value is listed as “significant antimalarial activity”. The IC50 with P. falciparum strain 3D7 (P. falciparum 3D7, 48 hrs, two independent experiments in duplicate wells) came out at 7.69 nM. In the series on P. falciparum strain 3D7 (listed as 2), the “SI value relative to that” value is 7 fold. In addition, in series [1] (48 hrs), the CC50 turned out to be 818 nM.

In the case of `Cc1c2oc3c(C)ccc(C(=O)N[C@@H]4C(=O)N[C@H](C(C)C)C(=O)N5CCC[C@H]5C(=O)N(C)CC(=O)N(C)[C@@H](C(C)C)C(=O)O[C@@H]4C)c3nc-2c(C(=O)N[C@@H]2C(=O)N[C@H](C(C)C)C(=O)N3CC(=O)C[C@H]3C(=O)N(C)CC(=O)N(C)[C@@H](C(C)C)C(=O)O[C@@H]2C)c(N)c1=O` [actinomycin X2] (I: T[dV][Pro(4-oxo)][Sar][NMeV] / II: T[dV]P[Sar][NMeV]; ester I:1-I:C, II:1-II:C; linker I:N-II:N via Actinocin(1to9)), in the series with P. falciparum strain 3D7, the “SI, selectivity index (CC50/IC50)” value amounted to 27.9; the IC50 worked out at 0.241 nM; the “antimalarial activity of purified components (in words)” value is recorded as “significant antimalarial activity”. Also, the “SI value relative to that” value in the series on P. falciparum strain 3D7 (listed as 1) was found to be 2 fold. In addition, the CC50 at 48 h in series [1] was 6.71 nM.
